Reference: article PMC6912754, “Identification of A Novel Class of Benzofuran Oxoacetic Acid-Derived Ligands that Selectively Activate Cellular EPAC1” (Cells, 2019)

Biological target: T1, EPAC2-CNBD (Homo sapiens, UniProt Q8WZA2)
T1 construct: gene RAPGEF4
Assay: biochemical
Design: 8-NBD-cAMP competition binding to GST-CNBD, fluorescence intensity 480/535 nm, dose response
Settings: 8-NBD-cAMP displacement, mean; read-out: Pharmacology assay data / EPAC2 pIC50 (mean) (converted)
Experimental: 8-(2-[7-nitro-4-benzofurazanyl] aminoethylthio) adenosine-3′,5′-cyclic monophosphate (8-NBD-cAMP) competition assays were performed with purified EPAC1-CNBD and EPAC2-CNBD GST-fusion proteins as previously described. Comparison of reference molecules, dose response curves (DRC) and pilot screens were done in black, low volume 384 assay plates (Greiner). Plates were incubated for 4 h before 8-NBD-cAMP fluorescence intensity at 480/535 nm (ex/em) was measured using the Envision multi-label plate reader (Perkin-Elmer; Waltham, MA, USA). EPAC1-CNBD (amino acids 169–318 of EPAC1) and EPAC2-CNBD (amino acids 304-453) cDNAs were previously sub-cloned into the multi-cloning site of the pGEX-6P-1 expression vector (GE Healthcare) by BC Bioscienes (Dundee, Scotland). Ral-GDS-RBD (amino acids 788-884) was cloned into pGEX-5X-1 as described. Recombinant EPAC1-CNBD, EPAC2-CNBD, EPAC1 (amino acids 149–881), Ral-GDS-RBD (amino acids 788-884), and Rap1B (amino acids 1–167) glutathione S-transferase (GST)-fusion proteins were then expressed and purified from BL-21 Escherichia coli, as previously described. Protein concentrations were determined by the bicinchoninic acid (BCA) assay or by Nanodrop 2000/2000c (Thermo Scientific). All recombinant proteins were determined to be pure by SDS-PAGE analysis. Proteins were stored in aliquots at −80 °C until required. Preliminary SAR on a benzofuran oxo-acetic acid series, based on SY000, was done using 8NBD-cAMP binding to EPAC1 and EPAC2 CNBDs, as summarized in the Supplementary Table, Supplementary Figures and Figure 4. […] Further alternatives to the R1 group (Figure S2), including reducing the linker length by a single [compound left out] […] In addition, N-methylation of the amide portion (ESC100960) also results in loss of activity. This could indicate a role for the NH as a hydrogen bond donor or that the substitution could adversely affect the conformation of the adjacent oxo-acetic acid group.

T1 sequence (Q8WZA2 whole entry): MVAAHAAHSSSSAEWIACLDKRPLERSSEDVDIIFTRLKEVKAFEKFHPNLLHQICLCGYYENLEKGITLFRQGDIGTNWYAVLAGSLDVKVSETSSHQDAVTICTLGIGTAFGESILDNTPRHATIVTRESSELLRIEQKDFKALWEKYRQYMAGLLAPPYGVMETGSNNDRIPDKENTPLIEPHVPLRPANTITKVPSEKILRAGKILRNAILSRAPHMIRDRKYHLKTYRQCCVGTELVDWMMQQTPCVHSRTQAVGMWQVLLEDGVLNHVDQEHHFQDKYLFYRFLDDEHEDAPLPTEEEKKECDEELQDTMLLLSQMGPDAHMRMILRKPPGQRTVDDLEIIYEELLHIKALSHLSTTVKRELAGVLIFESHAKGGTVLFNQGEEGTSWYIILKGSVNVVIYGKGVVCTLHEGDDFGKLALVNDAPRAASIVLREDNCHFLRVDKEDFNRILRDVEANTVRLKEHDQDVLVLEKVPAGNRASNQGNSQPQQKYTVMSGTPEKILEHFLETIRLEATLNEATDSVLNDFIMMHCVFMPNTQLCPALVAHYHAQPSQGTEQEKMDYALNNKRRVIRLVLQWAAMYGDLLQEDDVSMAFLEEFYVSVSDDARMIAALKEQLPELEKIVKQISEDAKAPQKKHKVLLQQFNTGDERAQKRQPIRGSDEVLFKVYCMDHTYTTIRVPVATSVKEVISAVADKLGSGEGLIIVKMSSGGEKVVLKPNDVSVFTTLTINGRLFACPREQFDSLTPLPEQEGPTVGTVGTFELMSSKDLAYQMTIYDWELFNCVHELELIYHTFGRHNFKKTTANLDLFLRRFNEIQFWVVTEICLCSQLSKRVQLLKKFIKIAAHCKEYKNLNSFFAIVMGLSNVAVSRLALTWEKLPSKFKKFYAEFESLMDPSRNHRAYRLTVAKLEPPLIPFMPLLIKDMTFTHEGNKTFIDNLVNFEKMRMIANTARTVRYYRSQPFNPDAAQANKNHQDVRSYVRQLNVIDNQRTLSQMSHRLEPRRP

Compound	IC50
Cc1c(C(=O)c2cccc(Br)c2)oc2ccc(CNC(=O)C(=O)O)cc12 [ESC1000906]	7.94 µM
Cc1ccc(C(=O)c2oc3ccc(CNC(=O)C(=O)O)cc3c2C)cc1 [SY000]	7.94 µM
Cc1ccc(C(=O)c2oc3ccc(CNC(=O)C(=O)O)cc3c2C(C)(C)C)cc1 [SY006]	22.4 µM
CCc1c(C(=O)c2ccc(C)cc2)oc2ccc(CNC(=O)C(=O)O)cc12 [SY007]	5.01 µM
Cc1ccc(C(=O)c2oc3ccc(CNC(=O)C(=O)O)cc3c2C(C)C)cc1 [SY009]	31.6 µM
